The results in this text go back to ChEMBL document CHEMBL1152874, “Synthesis of sulfonyl curcumin mimics exerting a vasodilatation effect on the basilar artery of rabbits” (Bioorg Med Chem Lett, 2009).

The first test is described as follows: Vasodilation activity against depolarization-induced contraction in anaesthetized white rabbit basilar artery at 10 uM. As to conditions: Oryctolagus cuniculus. Type of test: functional, tissue-based.
`COc1cc(/C=C/C(=O)c2cccc(NC(=O)C(C)C)c2)ccc1O` registered an Activity of 22.5%.

Consider `COc1cc(/C=C/C(=O)c2cccc(NS(=O)(=O)C(C)C)c2)ccc1O`, for which the Activity amounted to 8.4%.

For `COc1cc(/C=C/C(=O)c2cccc(NS(=O)(=O)c3ccc(C(F)(F)F)cc3)c2)ccc1O`, the Activity is 65.8%.

`COc1cc(/C=C/C(=O)CC(=O)/C=C/c2ccc(O)c(OC)c2)ccc1O` [CURCUMIN]: the Activity is 58.4%.

`COc1cc(/C=C/C(=O)c2cccc(NC(=O)c3ccco3)c2)ccc1O` showed an Activity of 41.7%.

`COc1cc(/C=C/C(=O)c2cccc(NC(C)=O)c2)ccc1O` displayed an Activity of 20.6%.

Regarding `COc1cc(/C=C/C(=O)c2cccc(NC(=O)c3ccc(Cl)cc3Cl)c2)ccc1O`, the Activity was found to be 27.9%.

In turn, `COc1cc(/C=C/C(=O)c2cccc(NS(=O)(=O)c3ccc(Cl)cc3Cl)c2)ccc1O` displayed an Activity of 4.2%.

As to `COc1cc(/C=C/C(=O)c2cccc(N)c2)ccc1O`, the Activity amounted to 8.3%.

In turn, `CCCS(=O)(=O)Nc1cccc(C(=O)/C=C/c2ccc(O)c(OC)c2)c1` displayed an Activity of 42.3%.

Take `COc1cc(/C=C/C(=O)c2cccc(NS(=O)(=O)c3ccc(OC(F)(F)F)cc3)c2)ccc1O`: the Activity worked out at 76.7%.

On to `COc1cc(/C=C/C(=O)c2cccc(NS(=O)(=O)c3cccc(C(F)(F)F)c3)c2)ccc1O`, for which the Activity was 52.3%.

The compound `COc1cc(/C=C/C(=O)c2cccc(NS(=O)(=O)c3ccc(F)cc3)c2)ccc1O` showed an Activity of 71.8%.

For `COc1cc(/C=C/C(=O)c2cccc(NS(=O)(=O)c3ccc(Cl)cc3)c2)ccc1O`, the Activity amounted to 93.4%.

In turn, `COc1cc(/C=C/C(=O)c2cccc(NS(=O)(=O)c3c(Cl)cccc3Cl)c2)ccc1O` registered an Activity of 99.4%.

`COc1cc(/C=C/C(=O)c2cccc(NS(=O)(=O)c3cc(Cl)cc(Cl)c3)c2)ccc1O` displayed an Activity of 37.3%.

Compound `COc1cc(/C=C/C(=O)c2cccc(NS(C)(=O)=O)c2)ccc1O` showed an Activity of 4.2%.

`COc1ccc(S(=O)(=O)Nc2cccc(C(=O)/C=C/c3ccc(O)c(OC)c3)c2)cc1` registered an Activity of 26.4%.

Take `COc1cc(/C=C/C(=O)c2cccc(NC(=O)c3cccs3)c2)ccc1O`: the Activity amounted to 27.1%.

Take `CCCC(=O)Nc1cccc(C(=O)/C=C/c2ccc(O)c(OC)c2)c1`: the Activity stood at 32.3%.

`COc1cc(/C=C/C(=O)c2cccc(NS(=O)(=O)c3cccs3)c2)ccc1O`: the Activity stood at 36.1%.

For the compound `COc1cc(/C=C/C(=O)c2cccc(NS(=O)(=O)c3ccccc3)c2)ccc1O`, the Activity amounted to 40.4%.

`COc1cc(/C=C/C(=O)c2cccc(NS(=O)(=O)c3ccc(Cl)c(Cl)c3)c2)ccc1O` displayed an Activity of 30.2%.

A short description of another test: Vasodilation activity against depolarization-induced contraction in anaesthetized white rabbit basilar artery. It counts as functional, tissue-based, Oryctolagus cuniculus.
Details: not given
For `COc1cc(/C=C/C(=O)CC(=O)/C=C/c2ccc(O)c(OC)c2)ccc1O` [CURCUMIN], the EC50 (in general, the concentration needed to bring the measured effect to its halfway point) amounted to 7.48 µM.

In turn, `COc1cc(/C=C/C(=O)c2cccc(NS(=O)(=O)c3ccc(Cl)cc3)c2)ccc1O` yielded an EC50 of 5.58 µM.

With `COc1cc(/C=C/C(=O)c2cccc(NS(=O)(=O)c3c(Cl)cccc3Cl)c2)ccc1O`, the EC50 came to 2.78 µM.
